Experiments:
[1] = test system: Human normal epidermal keratinocytes (HaCaT); assay: Cell proliferation rate (MTT) of normal epidermal keratinocytes; type: cell-based; settings: 50 µg/mL to 200 µg/mL in medium, 2 days, activity increased as content increased, Fig. 1
Method: Human normal epidermal keratinocytes (HaCaT) were cultured using DMEM containing 10% FBS. The cultured cells were collected by trypsin treatment. The collected cells were seeded in a 96-well microplate at a concentration of 5.0 x 10^3 cells/well and cultured overnight. Thereafter, the cells were cultured for 2 days at 37°C in a medium for epidermal keratinocyte proliferation (FBS-free) to which a test sample (sucrose or 2'-fucosyllactose) was added to a concentration of 50 µg/mL, 100 µg/mL, or 200 µg/mL. The medium was replaced with FBS-free DMEM medium, then 10 µL/well of 5 mg/mL 3-[4,5-dimethylthiazol-2-yl]-2,5-diphenyltetrazolium bromide (MTT) was added, and the cells were cultured at 37°C for 3 hours. After completion of culture, formazan produced in the cells was extracted with 100 µL of dimethyl sulfoxide (DMSO). After extraction, the absorbance of formazan (As, 492 nm) was measured with a microplate reader. The reference wavelength was set to 620 nm.
Human normal epidermal keratinocytes were cultured and the absorbance of formazan was measured in the same manner as in Example 1-1, except that no test sample was added. The obtained absorbance was designated as Ab, and the cell proliferation rate represented by the following formula (1) was determined. Cell proliferation rate(%) = 100 x As/AB [formula]

GLS1 [2] = assay: GLS1 expression analysis (ELISA) in BV2; type: cell-based; settings: mouse microglial cells (BV2), at least 200 µg/mL or more, 24 hours; effect increased from 200 to 1000 µg/mL; Fig. 12
Method: Mouse microglial cells (BV2) were cultured in glutamine-containing DMEM. The cultured cells were collected by trypsin treatment. The collected cells were seeded in a 6-well plate at a cell density of 4 x 10^5 cells/well and cultured for 24 hours in a 37°C, 5% CO2 incubator. After culturing, glutamine-free DMEM containing the test sample (2'-FL and lactose) at 50 µg/mL, 200 µg/mL, or 1000 µg/mL was added, and cultured for 24 hours in a 37°C, 5% CO2 incubator. The culture supernatant was removed, the cells were washed twice with PBS, and 0.20 mL of RIPA buffer was added to extract total protein. Protein in each protein extract was quantified by the Bradford assay.
Protein extracts were collected in the same manner as in [Example 10-1 B. Human gastric undifferentiated carcinoma cells (KKLS)], [Example 10-1 C. Mouse microglial cells (BV2)], [Example 10-1 D. Human gingival fibroblasts (Gin-1)], and [Example 10-1 E. Human umbilical vein endothelial cells (HUVEC)], respectively, except that a medium same as the above-mentioned medium but not containing the test sample was used instead of the medium containing the test sample, and protein in each protein extract was quantified by the Bradford assay.
An ELISA method was performed using an antibody against GLS1 to measure the amount of GLS1 in the samples. […]

GLS1 [3] = assay: GLS1 expression analysis (Western blot) in dermal fibroblasts cultured with medium of hydrogen peroxide-treated cells; type: cell-based, Human; settings: dermal fibroblasts NB1RGB, 50 µg/mL to 200 µg/mL, 24 hours, protein level vs β-actin; effect increased as content increased; Fig. 4
Method: Human normal dermal fibroblasts (NB1RGB, PDL of 30 or less) were cultured using DMEM containing 10% FBS. The cultured cells were collected by trypsin treatment. The collected cell-containing liquid was diluted with DMEM containing 10% FBS to a cell concentration of 5.0 x 10^5 cells, seeded in a 10 cm dish, and cultured until 60% confluent. Thereafter, the cultured cells were subjected to a treatment of exposure to a medium containing 50 µM hydrogen peroxide (FBS-free) for 2 hours once a day for 3 days. Then, the medium was replaced with DMEM containing 5% FBS, and after 2 days, the medium (medium A) was collected. Dermal fibroblasts not exposed to hydrogen peroxide were diluted with DMEM containing 10% FBS to a concentration of 5.0 x 10^5 cells, seeded in a 10 cm dish, and cultured for 24 hours. […]
The dermal fibroblasts prepared in [Example 3-1] were diluted with DMEM medium containing 10% FBS to a concentration of 8.0 x 10^4 cells, seeded in a 6-well plate, and cultured until 80% confluent. […] The extracted proteins were quantified by the Bradford assay.
Except that no test sample was added, skin fibroblasts prepared in [Example 3-1] and skin fibroblasts cultured using DMEM containing 10% FBS were cultured in the same manner as in [Example 3-2], and proteins were extracted. The extracted proteins were quantified by the Bradford assay. […]

SMILES: C[C@@H]1O[C@@H](O[C@H]2[C@H](O[C@H]3[C@H](O)[C@@H](O)C(O)O[C@@H]3CO)O[C@H](CO)[C@H](O)[C@@H]2O)[C@@H](O)[C@H](O)[C@@H]1O (stereo partly drawn) [2'-FL, 2'-fucosyllactose]
- proliferation activity of normal epidermal cells (cell proliferation rate) [1]: improved the proliferation activity of normal epidermal cells
- GLS1 expression (GLS1 [2]): suppressed GLS1 expression
- expression of GLS1 (GLS1 [3]): suppressed the expression of GLS1

Source: patent EP4670722A1, “PROPHYLACTIC OR AMELIORATING AGENT FOR CELL AGING” (Kyowa Pharma Chemical Co., Ltd., priority 2023, dated 2024)
